In PubChem BioAssay (NCI):
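GI50 = concentration required for 50% inhibition of growth. TGI: total growth inhibition.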

Legend:
Experiment in all cases: NCI anticancer screen, dose series, 384-well format
[1] = system: A498 renal
[2] = system: A549 NSCLC
[3] = system: ACHN renal
[4] = system: BT-549 breast
[5] = system: CAKI-1 renal
[6] = system: COLO 205 colon
[7] = system: DU-145 prostate
[8] = system: EKVX NSCLC
[9] = system: HCC-2998 colon
[10] = system: HCT-116 colon
[11] = system: HCT-15 colon
[12] = system: HL-60(TB) leukemia
[13] = system: HOP-62 NSCLC
[14] = system: HOP-92 NSCLC
[15] = system: HS 578T breast
[16] = system: HT29 colon
[17] = system: IGROV1 ovarian
[18] = system: KM12 colon
[19] = system: LOX IMVI melanoma
[20] = system: MCF7 breast
[21] = system: MDA-MB-231 breast
[22] = system: MDA-MB-435 melanoma
[23] = system: MDA-MB-468 breast
[24] = system: MOLT-4 leukemia
[25] = system: NCI-H226 lung
[26] = system: NCI-H322M lung
[27] = system: NCI-H460 NSCLC
[28] = system: NCI-H522 lung
[29] = system: NCI/ADR-RES ovarian
[30] = system: OVCAR-3 ovarian
[31] = system: OVCAR-4 ovarian
[32] = system: OVCAR-5 ovarian
[33] = system: OVCAR-8 ovarian
[34] = system: PC-3 prostate
[35] = system: RPMI-8226 leukemia
[36] = system: SF-268 CNS
[37] = system: SF-295 CNS
[38] = system: SF-539 CNS
[39] = system: SK-MEL-28 melanoma
[40] = system: SK-MEL-5 melanoma
[41] = system: SK-OV-3 ovarian
[42] = system: SN12C renal
[43] = system: SNB-19 CNS
[44] = system: SNB-75 CNS
[45] = system: SR leukemia
[46] = system: T-47D breast
[47] = system: TK-10 renal
[48] = system: U251 glioblastoma
[49] = system: UACC-257 melanoma

Structure (SMILES): FC(F)c1nc2ccccc2n1-c1nc(N2CCOCC2)nc(N2CCOCC2)n1
- GI50 [1]: 101 nM
- TGI [1]: 351 nM
- GI50 [2]: 645 nM
- TGI [2]: > 100000 nM
- GI50 [3]: 187 nM
- TGI [3]: 1410 nM
- GI50 [4]: 207 nM
- TGI [4]: 1790 nM
- GI50 [5]: 216 nM
- TGI [5]: > 100000 nM
- GI50 [6]: 246 nM
- TGI [6]: 1980 nM
- GI50 [7]: 352 nM
- TGI [7]: 2390 nM
- GI50 [8]: 169 nM
- TGI [8]: 1550 nM
- GI50 [9]: 23.1 nM
- TGI [9]: 2120 nM
- GI50 [10]: 1350 nM
- TGI [10]: > 100000 nM
- GI50 [11]: 330 nM
- TGI [11]: > 100000 nM
- GI50 [12]: 138 nM
- TGI [12]: 896 nM
- GI50 [13]: 420 nM
- TGI [13]: 3960 nM
- GI50 [14]: 303 nM
- TGI [14]: > 100000 nM
- GI50 [15]: 202 nM
- TGI [15]: 2140 nM
- GI50 [16]: 454 nM
- TGI [16]: > 100000 nM
- GI50 [17]: 44 nM
- TGI [17]: 237 nM
- GI50 [18]: 1400 nM
- TGI [18]: > 100000 nM
- GI50 [19]: 598 nM
- TGI [19]: 4150 nM
- GI50 [20]: 84.3 nM
- TGI [20]: > 100000 nM
- GI50 [21]: 957 nM
- TGI [21]: > 100000 nM
- GI50 [22]: 918 nM
- TGI [22]: 4750 nM
- GI50 [23]: 202 nM
- TGI [23]: 2090 nM
- GI50 [24]: 166 nM
- TGI [24]: 716 nM
- GI50 [25]: 324 nM
- TGI [25]: 3020 nM
- GI50 [26]: 281 nM
- TGI [26]: 1980 nM
- GI50 [27]: 224 nM
- TGI [27]: 2140 nM
- GI50 [28]: 198 nM
- TGI [28]: 894 nM
- GI50 [29]: 507 nM
- TGI [29]: > 100000 nM
- GI50 [30]: 174 nM
- TGI [30]: 1080 nM
- GI50 [31]: 25.2 nM
- TGI [31]: 1530 nM
- GI50 [32]: 133 nM
- TGI [32]: 759 nM
- GI50 [33]: 641 nM
- TGI [33]: > 100000 nM
- GI50 [34]: 56 nM
- TGI [34]: 825 nM
- GI50 [35]: 172 nM
- TGI [35]: 608 nM
- GI50 [36]: 1540 nM
- TGI [36]: > 100000 nM
- GI50 [37]: 250 nM
- TGI [37]: 2370 nM
- GI50 [38]: 475 nM
- TGI [38]: > 100000 nM
- GI50 [39]: 402 nM
- TGI [39]: > 100000 nM
- GI50 [40]: 191 nM
- TGI [40]: 1290 nM
- GI50 [41]: 282 nM
- TGI [41]: 5000 nM
- GI50 [42]: 19.8 nM
- TGI [42]: 380 nM
- GI50 [43]: 3370 nM
- TGI [43]: > 100000 nM
- GI50 [44]: 154 nM
- TGI [44]: 13900 nM
- GI50 [45]: 147 nM
- TGI [45]: 896 nM
- GI50 [46]: 171 nM
- TGI [46]: 5380 nM
- GI50 [47]: 224 nM
- TGI [47]: 1740 nM
- GI50 [48]: 1230 nM
- TGI [48]: > 100000 nM
- GI50 [49]: 278 nM
- TGI [49]: 4260 nM
